Patent US20210308101A1, “METHODS OF TREATING FIBROMYALGIA” (Aptinyx Inc., priority 2019, published 2021)
“Also recorded” adds a separate entry of the source.

Experiments:
Assay type in all cases: in vivo, human
[1] = test system: subjects with fibromyalgia; assay: QST: digital algometer pressure pain threshold (trapezius, wrist, patella)
Experimental: Localized pressure pain sensitivity was also measured bilaterally at 3 additional body regions: trapezius, wrist, and patella. Examination of multiple sites across all quadrants of the body permitted analysis of the distribution of pain sensitivity. Sensitivity was measured using a digital algometer with a 1-cm^2 flat rubber probe. […] Measurements were conducted 2 to 3 times (15- to 20-second intervals) at each site.
(§1) QST data were analyzed at the University of Michigan CPFRC. Dependent variables were the MAST derived outcomes (Pain50, pressure pain threshold, pain tolerance, and pain ratings at 2 kg/cm2), algometry-derived pressure pain thresholds (mean of three trials) at each anatomical site, average cuff intensity ratings (mean of ratings at all stimulus levels during the ascending or random sequences), and average visual task unpleasantness and brightness intensity ratings (mean of ratings at all stimulus levels). Practice data were not analyzed. Overall pain intensity and unpleasantness NRS scores as well as stimulus response curves for each test were assessed during post hoc analyses. Data points displaying measurement artefacts, including device malfunction or user error, were set to missing. Single subject QST variables were analyzed using paired t-tests and/or nonparametric Wilcoxon signed-rank tests in SPSS or R.

[2] = test system: subjects with fibromyalgia; assay: QST: cuff algometry
Experimental: Large volume, deep tissue pressure sensitivity was assessed by cuff algometry. Calibrated cuff pain stimuli were delivered to the gastrocnemius area of the lower leg using a validated MRI-compatible cuff pain device. This system included an air compressor, computerized pressure controller, and a 13.5 cm×82.5 cm Velcro-adjusted pressure cuff (similar to a blood pressure cuff). Subjects first received an ascending series of cuff pressures, starting at 20 mmHg and increasing in 20-mmHg steps (10- to 14-second duration pressures, 20-second interstimulus interval) to tolerance or a maximum of 400 mmHg. Each pressure was rated after deflation on a 0 to 100 NRS. These pain ratings were used to interpolate a series of 9 tolerable cuff pressures that were delivered in pseudo-randomized order and rated individually. […] Curves were constructed for each participant and used for analysis of drug and placebo effects. An abbreviated form of cuff algometry was performed during fMRI as an evoked pain stimulus.
as §1

[3] = test system: subjects with fibromyalgia; assay: QST: visual stimulation task
Description: To measure non-somatic sensitivity, a series of nonpainful, yet aversive, visual stimuli were presented to each subject. This 10-minute task consisted of 2 different visual stimuli presented in an alternating block design. The control stimulus was a solid color background, whereas experimental stimulus was a flashing annulus checkerboard. These 2 stimuli were interleaved into independent 8- to 30-second blocks throughout the duration of the task. Subjects viewed the stimuli on a calibrated liquid crystal display computer screen designed for high resolution image presentation. Stimuli were presented at varying brightness levels and/or color patterns, and each stimulus presentation was rated on scales of sensory intensity and unpleasantness. […] A redacted version of this task was administered during fMRI.
as §1

[4] = test system: resting state functional connectivity; assay: rs-fcMRI seed-based region of interest functional connectivity
Description: Resting state functional connectivity magnetic resonance imaging (rs-fcMRI) also uses noninvasive techniques to map blood flow in the brain. In rs-fcMRI, neural connections between different areas of the brain are identified by mapping regions of synchronous blood flow fluctuations. Synchronous blood fluctuations are examined to determine the strength of neural connections between different brain regions.
Resting 6-minute scans, with subjects resting comfortably in the scanner with eyes open and fixated on a crosshair, were completed at the beginning of the scan session. Whole brain BOLD rs-fcMRI data were collected following same parameters used for evoked fMRI. Physiological data were also collected simultaneously with rs-fcMRI data, as cardiorespiratory fluctuations are known to influence rs-fcMRI intrinsic connectivity estimation within several brain networks
In order to quantify intrinsic brain connectivity, rs-fcMRI data were analyzed with both dual-regression ICA and seed-voxel approaches. These approaches are complementary, as they quantify intrinsic brain connectivity on a network level (dual regression probabilistic ICA) and a more specific region-focused level (seed-voxel).
Resting state functional connectivity MRI data were preprocessed and analyzed using statistical parametric mapping software package Version 12, the CONN functional connectivity toolbox, and the GIFT toolbar, all running on MATLAB Version 9.2 or later. Upon collection of rs-fcMRI data, physiological artifacts were first removed using a custom MATLAB algorithm and slice-time corrected using Functional Magnetic Resonance Imaging of the Brain Software Library software. Preprocessing steps included motion correction, realignment, registration, normalization to standard Montreal Neurological Institute template, and smoothing (full width at half maximum Gaussian kernel of 6 or 8 mm).
Seed to whole brain functional connectivity analysis was performed using the CONN toolbox, Version 15, running on […]. […] Spheres were created (5 mm radius) around peak voxel coordinates and white matter, CSF, and motion parameters were used as covariates of no interest. Seed-based analyses were also performed using regions of interest assessed with single voxel ^1H-MRS regions showing NYX-2925 effects on Glx level. Data were band pass filtered (0.01 to 0.1 Hz) to remove linear drifts and high frequency noise. First level analysis correlated the time course from the seed to all brain voxels, creating connectivity maps for each seed region. These connectivity maps were passed up to group-level analyses comparing differences in connectivity at the visits of interest in statistical parametric mapping.
Several analyses were conducted with the fMRI resting state and task data. Results were assessed by: 1) a primary analysis, where a finding was deemed significant with a corrected cluster level p<0.05, derived from an uncorrected voxel-wise p<0.001, and 2) an exploratory analysis, where a finding was deemed significant with an uncorrected voxel-wise p<0.005 and having a cluster greater than or equal to 80 contiguous voxels. Results that met significance in the primary analyses had connectivity values extracted and imported into SPSS v25 where paired t-tests were performed to assess for potential outliers contributing to the finding. Remaining data were then correlated with clinical measures using parametric bivariate Pearson correlations. Results were deemed significant at p<0.05.
Seed-based, region of interest, functional connectivity analyses were performed (n=18) for regions that were used to acquire ^1H-MRS data: dACC, perigenual anterior cingulate cortex (pgACC), right anterior insula cortex, right posterior insula cortex, precuneus, thalamus, and medial prefrontal cortex.

[5] = exploratory, placebo visit to NYX-2925 200 mg visit

CC(C)C(=O)N1CCC[C@]12CN([C@H](C(N)=O)[C@@H](C)O)C2=O [NYX-2925, (2S, 3R)-3-hydroxy-2-((R)-5-isobutyryl-1-oxo-2,5-diazaspiro[3.4]octan-2-yl)butanamide]
right trapezius pressure pain threshold ([1]; 200 mg, placebo 1.77±1.53, p=0.047): 1.58±1.37 kgf/cm^2
left wrist pressure pain threshold ([1]; NYX-2925 20 mg, baseline 1.60±1.11, p=0.042): 1.30±1.08 kgf/cm^2
right wrist pressure pain threshold ([1]; NYX-2925 20 mg, baseline 1.64±1.30, p=0.021): 1.28±1.10 kgf/cm^2
right wrist pressure pain threshold ([1]; NYX-2925 200 mg, baseline 1.64±1.30, p=0.042): 1.32±1.15 kgf/cm^2
mean pain intensity rating of the Cuff Random paradigm ([2]; NYX-2925 20 mg relative to baseline, p=0.073): marginally reduced
Cuff Random Pain50 threshold ([2]; NYX-2925 20 mg, baseline 151.89±110.64, p=0.031): 193.00±128.16 mmHg
Cuff Random Pain50 threshold ([2]; NYX-2925 200 mg, baseline 157.70±110.78, p=0.038): 209.80±132.51 mmHg
cuff algometry procedure overall unpleasantness rating ([2]; Week 7 follow-up, after cessation of NYX-2925, p=0.040 vs 200 mg): 30.00±22.82
cuff algometry procedure overall unpleasantness rating ([2]; treatment with NYX-2925 200 mg (Week 6)): 25.00±19.15
overall visual task unpleasantness ([3]; NYX-2925 200 mg (Week 6)): 42.31±29.20
rating of unpleasantness evoked by the brightest visual stimulus ([3]; NYX-2925 200 mg (Week 6)): 59.97±35.46 NRS
rating of unpleasantness evoked by the brightest visual stimulus ([3]; Week 7 follow-up, p=0.037 vs 200 mg): 53.13±36.88 NRS
overall visual task unpleasantness ([3]; Week 7 follow-up, p=0.040 vs 200 mg): 33.85±28.07
connectivity right anterior insula cortex seed - right ventral anterior thalamic nucleus ([4]; baseline visit to NYX-2925 200 mg visit, PFWE=0.018): decreased
connectivity right posterior insula cortex seed - dACC ([4]; exploratory analysis, placebo visit to NYX-2925 20 mg visit): decrease in connectivity
connectivity precuneus - right anterior insula and left dACC ([4]; exploratory, baseline visit to NYX-2925 20 mg visit): decreased
connectivity precuneus - right mid cingulate cortex ([4]; exploratory, placebo visit to NYX-2925 20 mg visit): Decreases in resting state functional connectivity
connectivity precuneus seed - right posterior/mid cingulate cortex [4, 5]: decreased
connectivity thalamus seed - right anterior prefrontal cortex and bilateral precuneus [4, 5]: decreases in connectivity
functional connectivity dACC seed - right posterior insula cortex ([4]; placebo to NYX-2925 20 mg, not meeting cluster level correction significance): decreased connectivity
functional connectivity pgACC seed - left precuneus/precentral gyrus ([4]; placebo visit to NYX-2925 20 mg visit, PFWE<0.00001): decreased
connectivity medial prefrontal cortex seed - right anterior prefrontal cortex and right mid cingulate cortex ([4]; placebo visit to NYX-2925 200 mg visit, PFWE=0.003 and 0.036): Decreases were also observed
functional connectivity pgACC seed - right inferior frontal gyrus ([4]; placebo visit to NYX-2925 200 mg visit, PFWE=0.008): decreased
connectivity of precuneus seed ([4]; primary analyses): no significant results
connectivity of right posterior insula cortex seed ([4]; primary analyses): no significant findings
connectivity thalamus seed - bilateral cuneus ([4]; primary analysis, baseline visit to NYX-2925 200 mg visit, PFWE<0.00001): significant decrease in resting state connectivity
functional connectivity of dACC seed to right superior temporal gyrus, left premotor/primary somatosensory cortex, right precuneus, left precentral gyrus/premotor cortex ([4]; primary analysis, placebo visit to NYX-2925 20 mg visit, PFWE 0.030-0.049): reduced connectivity; also recorded: decreased functional connectivity
connectivity medial prefrontal cortex seed - right anterior prefrontal/dorsolateral prefrontal cortex ([4]; primary, baseline visit to NYX-2925 200 mg visit, PFWE=0.001): Significant decreases in resting state connectivity
